Columns and labels:
CMK = test: MTT cell proliferation assay, control cells; format: cell-based, human; settings: control cells (CMK negative control), 48 hour MTT
STAT5 and ERK = test: Western blot of downstream target phosphorylation in MKPL-1 cells; format: cell-based, human; settings: Imatinib

Cc1ccc(NC(=O)c2ccc(CN3CCN(C)CC3)cc2)cc1Nc1nccc(-c2cccnc2)n1 [Imatinib]
inhibition of cell growth (CMK): the control cells are not
phosphorylation of downstream target STAT5 and ERK (STAT5 and ERK): inhibited as well

Reference: US20090197269A1, “Translocation and mutant CSF1R Kinase in human leukemia” (CELL SIGNALING TECHNOLOGY, INC., priority 2006, published 2009)
